Measured values as given in patent US20250205344A1, “2,4-DIOXOTETRAHYDROPYRIMIDINYL DERATIVES AS DEGRONS IN PROTACS” (GLAXOSMITHKLINE INTELLECTUAL PROPERTY DEVELOPMENT LIMITED, priority 2022, published 2025).
Structures can show the parent of a compound that is named as a salt.

What follows are compounds tested against T1, Androgen Receptor (Homo sapiens, UniProt P10275, T878A) (assay: Androgen Receptor Degradation Assay (Nano-Glo HiBiT)). Settings: LNCaP, 18 h, HiBiT-tagged AR in human LnCaP cells, read-out: mean asymptote max.
T1 construct: the AR gene was modified, using CRISPR/Cas9 editing, so the expressed AR protein included an 11 amino acid HiBiT tag; endogenous in cells; host or cells: clonal LnCaP-derived line, AR gene edited by CRISPR/Cas9
T1 sequence (P10275 whole entry T878A): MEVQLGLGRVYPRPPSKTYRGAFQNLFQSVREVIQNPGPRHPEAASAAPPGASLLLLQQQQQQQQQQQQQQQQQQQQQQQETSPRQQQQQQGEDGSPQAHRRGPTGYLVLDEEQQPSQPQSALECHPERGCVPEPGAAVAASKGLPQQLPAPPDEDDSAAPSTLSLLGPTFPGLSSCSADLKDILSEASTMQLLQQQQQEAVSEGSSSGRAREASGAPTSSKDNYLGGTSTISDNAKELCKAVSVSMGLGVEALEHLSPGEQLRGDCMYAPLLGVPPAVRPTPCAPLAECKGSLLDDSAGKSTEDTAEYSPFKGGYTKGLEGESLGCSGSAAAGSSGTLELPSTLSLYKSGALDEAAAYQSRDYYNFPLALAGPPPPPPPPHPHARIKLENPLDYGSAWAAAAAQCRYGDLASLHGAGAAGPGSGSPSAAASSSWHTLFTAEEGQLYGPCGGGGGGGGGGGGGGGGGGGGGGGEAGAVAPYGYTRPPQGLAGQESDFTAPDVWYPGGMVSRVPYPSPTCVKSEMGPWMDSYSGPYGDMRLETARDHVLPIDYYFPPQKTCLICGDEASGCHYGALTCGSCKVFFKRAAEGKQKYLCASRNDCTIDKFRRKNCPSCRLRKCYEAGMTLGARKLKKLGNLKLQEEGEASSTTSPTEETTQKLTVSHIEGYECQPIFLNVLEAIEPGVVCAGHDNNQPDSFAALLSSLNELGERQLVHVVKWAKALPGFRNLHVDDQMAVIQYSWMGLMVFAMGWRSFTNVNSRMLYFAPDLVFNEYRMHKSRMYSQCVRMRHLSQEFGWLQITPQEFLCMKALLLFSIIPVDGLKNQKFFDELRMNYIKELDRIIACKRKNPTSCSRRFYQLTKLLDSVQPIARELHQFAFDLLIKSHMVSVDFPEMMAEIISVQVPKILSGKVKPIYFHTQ
T1 sequence (Q96SW2 whole entry partner): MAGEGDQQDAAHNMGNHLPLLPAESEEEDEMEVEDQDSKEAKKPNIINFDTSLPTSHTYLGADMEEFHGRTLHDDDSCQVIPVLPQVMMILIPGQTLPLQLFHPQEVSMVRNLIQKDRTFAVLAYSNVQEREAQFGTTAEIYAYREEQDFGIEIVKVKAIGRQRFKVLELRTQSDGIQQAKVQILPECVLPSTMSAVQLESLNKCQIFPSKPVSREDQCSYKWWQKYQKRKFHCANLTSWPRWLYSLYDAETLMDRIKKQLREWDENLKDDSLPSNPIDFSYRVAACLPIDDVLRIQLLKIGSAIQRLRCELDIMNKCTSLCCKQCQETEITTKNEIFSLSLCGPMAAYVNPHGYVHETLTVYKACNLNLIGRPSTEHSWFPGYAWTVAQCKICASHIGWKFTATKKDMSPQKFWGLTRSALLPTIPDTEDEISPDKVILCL
T1 sequence (Q16531 whole entry partner): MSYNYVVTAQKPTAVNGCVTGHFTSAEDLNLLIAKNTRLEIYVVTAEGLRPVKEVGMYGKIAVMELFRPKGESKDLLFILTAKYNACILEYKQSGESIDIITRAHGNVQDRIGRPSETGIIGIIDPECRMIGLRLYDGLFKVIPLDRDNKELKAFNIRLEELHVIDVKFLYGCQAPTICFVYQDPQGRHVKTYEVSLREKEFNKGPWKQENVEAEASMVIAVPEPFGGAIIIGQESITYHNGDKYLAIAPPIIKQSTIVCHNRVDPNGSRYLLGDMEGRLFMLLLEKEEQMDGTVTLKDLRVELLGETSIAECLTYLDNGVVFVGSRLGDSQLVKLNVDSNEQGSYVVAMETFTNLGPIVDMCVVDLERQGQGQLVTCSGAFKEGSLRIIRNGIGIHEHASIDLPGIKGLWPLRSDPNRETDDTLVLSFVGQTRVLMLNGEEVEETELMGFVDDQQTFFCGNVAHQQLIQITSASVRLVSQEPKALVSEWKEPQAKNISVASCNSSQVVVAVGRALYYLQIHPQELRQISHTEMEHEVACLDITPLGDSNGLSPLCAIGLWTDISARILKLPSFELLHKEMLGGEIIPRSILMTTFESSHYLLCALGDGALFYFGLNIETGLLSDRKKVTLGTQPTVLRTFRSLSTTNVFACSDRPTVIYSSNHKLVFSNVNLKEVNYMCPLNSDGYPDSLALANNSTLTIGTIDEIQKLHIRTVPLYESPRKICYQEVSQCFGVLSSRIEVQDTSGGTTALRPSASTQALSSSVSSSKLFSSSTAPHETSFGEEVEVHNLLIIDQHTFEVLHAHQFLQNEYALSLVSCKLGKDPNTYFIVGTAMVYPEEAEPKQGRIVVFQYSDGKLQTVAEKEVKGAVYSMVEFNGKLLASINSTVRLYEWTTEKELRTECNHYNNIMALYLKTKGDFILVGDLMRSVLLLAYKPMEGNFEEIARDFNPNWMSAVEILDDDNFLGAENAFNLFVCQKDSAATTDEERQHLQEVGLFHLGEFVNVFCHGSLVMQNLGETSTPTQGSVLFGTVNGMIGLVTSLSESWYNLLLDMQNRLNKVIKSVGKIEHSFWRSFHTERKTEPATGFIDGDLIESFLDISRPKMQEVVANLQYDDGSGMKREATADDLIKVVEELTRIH
Format: cell-based
Procedure, shortened: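 LnCaP cells with CRISPR-knocked-in N-terminal HiBiT-tagged AR (10,000/well) treated 18 h at 37 °C with PROTACs over 11 threefold concentrations; lytic HiBiT luminescence normalised to DMSO (0%) and cell-free (100%) controls. Relative DC50 = 4-parameter fit inflection; absolute DC50 = 50% degradation interpolation; Dmax = maximum observed degradation.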

| Compound | Dmax [%] |
| --- | --- |
| N#Cc1ccc(O[C@H]2CC[C@H](NC(=O)c3ccc(N4CCC(CN5CC[C@H](n6ccc7c(N8CCC(=O)NC8=O)cccc76)C5)CC4)nn3)CC2)cc1Cl [EAR171, N-((1r,4r)-4-(3-Chloro-4-cyanophenoxy)cyclohexyl)-6-(4-(((R)-3-(4-(2,4-dioxotetrahydropyrimidin-1(2H)-yl)-1H-indol-1-yl)pyrrolidin-1-yl)methyl)piperidin-1-yl)pyridazine-3-carboxamide, hydrochloride] | ≥ 50 |
| N#Cc1ccc(O[C@H]2CC[C@H](NC(=O)c3ccc(N4CCN(CC(=O)N5CCC(n6ncc7c(N8CCC(=O)NC8=O)cccc76)CC5)CC4)nn3)CC2)cc1Cl [EAR158, N-((1r,4r)-4-(3-Chloro-4-cyanophenoxy)cyclohexyl)-6-(4-(2-(4-(4-(2,4-dioxotetrahydropyrimidin-1(2H)-yl)-1H-indazol-1-yl)piperidin-1-yl)-2-oxoethyl)piperazin-1-yl)pyridazine-3-carboxamide] | ≥ 50 |
| CC(C)n1ccc2c(N3CCC(=O)NC3=O)cc(C(=O)NCCOCCN3CCN(c4ccc(C(=O)N[C@H]5CC[C@H](Oc6ccc(C#N)c(Cl)c6)CC5)nn4)CC3)cc21 [EAR76, N-(2-(2-(4-(6-(((1r,4r)-4-(3-Chloro-4-cyanophenoxy)cyclohexyl)carbamoyl)pyridazin-3-yl)piperazin-1-yl)ethoxy)ethyl)-4-(2,4-dioxotetrahydropyrimidin-1(2H)-yl)-1-isopropyl-1H-indole-6-carboxamide] | ≥ 50 |
| N#Cc1ccc(O[C@H]2CC[C@H](NC(=O)c3ccc(N4CCC[C@@H](CN5CCC(n6ccc7c(N8CCC(=O)NC8=O)cccc76)CC5)C4)nn3)CC2)cc1Cl [EAR143, N-((1r,4R)-4-(3-chloro-4-cyanophenoxy)cyclohexyl)-6-((S)-3-((4-(4-(2,4-dioxotetrahydropyrimidin-1(2H)-yl)-1H-indol-1-yl)piperidin-1-yl)methyl)piperidin-1-yl)pyridazine-3-carboxamide] | ≥ 50 |
| C[C@@H]1CN(c2ccc(C#N)c(Cl)c2)[C@@H](C)CN1C(=O)c1ccc(OCCN2CCC(n3ncc4c(N5CCC(=O)NC5=O)cncc43)CC2)nc1 [EAR174, 2-Chloro-4-((2S,5R)-4-(6-(2-(4-(4-(2,4-dioxotetrahydropyrimidin-1(2H)-yl)-1H-pyrazolo[3,4-c]pyridin-1-yl)piperidin-1-yl)ethoxy)nicotinoyl)-2,5-dimethylpiperazin-1-yl)benzonitrile] | ≥ 50 |
| N#Cc1ccc(O[C@H]2CC[C@H](NC(=O)c3ccc(N4CC(CN5CCC(n6ccc7c(N8CCC(=O)NC8=O)cccc76)CC5)C4)nn3)CC2)cc1Cl [EAR72, N-((1r,4r)-4-(3-Chloro-4-cyanophenoxy)cyclohexyl)-6-(3-((4-(4-(2,4-dioxotetrahydropyrimidin-1(2H)-yl)-1H-indol-1-yl)piperidin-1-yl)methyl)azetidin-1-yl)pyridazine-3-carboxamide hydrochloride] | ≥ 50 |
| C[C@@H]1CN(C(=O)Nc2ccc(OCCCCN3CCC(n4ccc5c(N6CCC(=O)NC6=O)cccc54)CC3)nc2)[C@@H](C)CN1c1ccc(C#N)c(Cl)c1 [EAR121, (2S,5R)-4-(3-chloro-4-cyanophenyl)-N-(6-(4-(4-(4-(2,4-dioxotetrahydropyrimidin-1(2H)-yl)-1H-indol-1-yl)piperidin-1-yl)butoxy)pyridin-3-yl)-2,5-dimethylpiperazine-1-carboxamide] | ≥ 50 |
| N#Cc1ccc(O[C@H]2CC[C@H](NC(=O)c3ccc(N4CC[C@@H](CN5CCC(n6ncc7c(N8CCC(=O)NC8=O)cccc76)CC5)C4)nn3)CC2)cc1Cl [EAR239, N-((1r,4R)-4-(3-chloro-4-cyanophenoxy)cyclohexyl)-6-((S)-3-((4-(4-(2,4-dioxotetrahydropyrimidin-1(2H)-yl)-1H-indazol-1-yl)piperidin-1-yl)methyl)pyrrolidin-1-yl)pyridazine-3-carboxamide] | ≥ 50 |
